Several values for one entry are separate records, joined by “and”; a condition that tells them apart may be missing. Identical values can stand only once.
Columns and labels:
[1] = tested on: 4T1-Luc tumor model; assay: In vivo anti-tumor activity, breast cancer 4T1-Luc tumor model; settings: for final survival rate: dead includes body weight decrease of more than 20%
Description: Firstly, a 4T1-Luc tumor model was established using Balb/c female mice 4-5 weeks old. After the tumor volume reached […], the mice were randomly divided into four groups, namely Solvent, Cisplatin, Cisplatin+Gramine, and Compound c groups, respectively. The drugs were formulated at a Pt concentration of 2.0 mg/kg, once every 3 days and six times in total, while the body weight and tumor volume of the mice were measured every 2 days. The mice were sacrificed and the organs (heart, liver, spleen, lung, kidney) and tumors thereof were excised. The organs and tumors were used for H&E staining, immunohistochemical staining, and ICP-MS determination of platinum content.

[2] = tested on: KPC tumor model; assay: In vivo anti-tumor activity, pancreatic cancer KPC model; settings: for final survival rate: dead includes body weight decrease of more than 20%; for tumor inhibition rate at the treatment endpoint: Pt 3.0 mg/kg once every 3 days, five times; for PD-1 level in tumors (flow cytometry): solvent control 15.7%
Description: Firstly, a KPC tumor model was established using C57BL/6 female mice 4-5 weeks old. […] The drugs were formulated at a Pt concentration of 3.0 mg/kg, once every 3 days and five times in total, while the body weight and tumor volume of the mice were measured every 3 days. The mice were sacrificed and the organs (heart, liver, spleen, lung, kidney) and tumors thereof were excised. The tumors were used for flow cytometry to determine the content of immune cells.

[3] = tested on: Patient-derived xenografts (PDXs) of pancreatic cancer; assay: In vivo anti-tumor activity, pancreatic cancer PDX model; settings: for final survival rate: dead includes body weight decrease of more than 20%; for tumor inhibition rate at the treatment endpoint: Pt 3.0 mg/kg once every 3 days, five times
Description: Patient-derived xenografts (PDXs) were used. Fresh tumor tissue from a patient was treated and transplanted subcutaneously into the groin of immunodeficient NOD-SCID IL-2 receptor gamma null (NSG) mice. […] The successfully transplanted tumor was passaged for 3 passages or more in NSG mice to obtain mouse models for experiments. […] The drugs were formulated at a Pt concentration of 3.0 mg/kg, once every 3 days and five times in total, while the body weight and tumor volume of the mice were measured every 3 days. The mice were sacrificed and the organs (heart, liver, spleen, lung, kidney) and tumors thereof were excised. The organs and tumors were used for ICP-MS determination of platinum content.

[4] = tested on: MCF-7 (human breast cancer cells); assay: In vitro anti-tumor activity assay (MTT), MCF-7; format: cell-based; settings: average of multiple measurements
Excerpt: (§1) In this assay, the anti-tumor activity of the synthesized compounds was studied by MTT (3-(4,5-dimethylthiazolyl-2)-2,5-diphenyltetrazolium bromide) method. Eight kinds of cancer cells including MDA-MB-231 (human breast cancer cells), MCF-7 (human breast cancer cells), HCT-116 (human colon cancer cells), HeLa (human cervical cancer cells), FaDu (human pharyngeal squamous carcinoma cells), 5637 (human bladder cancer cells), OVCAR3 (human ovarian cancer cells), HCCC9810 (human liver cancer cells) and one normal human cell line LO2 (human liver cells) were used in this assay to perform experimental research on cytotoxicity. All cell lines were cultured in an incubator with 5% CO2 and saturated humidity at 37° C. The specific experimental steps were as follows:
(§2) The cells in logarithmic growth phase were collected, counted, adjusted to a cell concentration of 3× 10^4 cells/mL, and then seeded into a 96-well plate at 100 μL/well. The blank group (Blank, pure medium group) and the control group (Control, no drug group) were set up. The plate was cultured overnight in a cell culture incubator. After adhesion, the compounds were diluted with culture medium and added to the first column of administration wells at a desired concentration for these wells, followed by the 2-fold serial dilution and administration in subsequent wells, and pipetted gently to mix well. After incubation for 72 hours, 10 μL of MTT solution (5 mg/mL) was added to each well. After cultivation in the incubator for another 4 hours, the supernatant was removed, and DMSO was added at 100 μL/well. After shaking thoroughly, the OD value was measured using a microplate-reader at […]. Three independently repeated experiments were carried out to ensure the reliability of the experimental results.

[5] = tested on: HCT-116 (human colon cancer cells); assay: In vitro anti-tumor activity assay (MTT), HCT-116; format: cell-based; settings: average of multiple measurements
Excerpt: as §1, §2

[6] = tested on: HeLa (human cervical cancer cells); assay: In vitro anti-tumor activity assay (MTT), HeLa; format: cell-based; settings: 72 hours, average of multiple measurements
Excerpt: as §1, §2

[7] = tested on: MDA-MB-231 (human breast cancer cells); assay: In vitro anti-tumor activity assay (MTT), MDA-MB-231; format: cell-based; settings: for IC50: 72 hours, MTT, average of multiple measurements
Excerpt: as §1, §2

[8] = tested on: LO2 (human liver cells); assay: Cytotoxicity (MTT) on normal cell line LO2; format: cell-based; settings: 72 hours
Excerpt: as §1, §2

[9] = tested on: pancreatic cancer organoids from patients; assay: In vitro organoid activity assay, pancreatic cancer; format: cell-based, human; settings: 96 hours, CellTiter-Glo 3D, one value per case; read-out: IC50 in organoid models of 2 cases of pancreatic cancer
Description: (§3) The experimental steps were as follows:
(§4) Tumor samples were obtained from the patients undergoing surgery for breast cancer and pancreatic cancer, and digested with tumor dissociation kits. Tumor suspensions were collected and centrifuged to obtain tumor organoids. Complete culture medium for breast cancer or pancreatic cancer organoids was added to the organoid models which were cultured and passaged under the culture conditions of 5% CO2 and saturated humidity at 37° C. The organoids in logarithmic growth phase were collected, counted, resuspended in Matrigel at an organoid concentration of 5×10^4 cells/mL, and then seeded into a 96-well plate at 20 μL/well, followed by further addition of 80 μL of complete medium. The blank group (Blank, medium group without organoids) and the control group (Control, medium group with organoids) were set up. After the organoids were cultured overnight in an incubator with 5% CO2 at 37° C. and adhered, 200 μL of the culture medium containing the drug at a concentration of 20 μM was added to the first administration well, followed by the 2-fold serial dilution and administration, and pipetted gently to mix well. After incubation for 96 hours, representative photos were taken for each well using an inverted microscope, and 10 μL of CellTiter-Glo 3D Reagent (Promega) solution was added to each well to detect the organoid viability.

[10] = tested on: pancreatic cancer cells MIA-PaCa2; assay: CCK-8 inhibition of pancreatic cancer cells, MIA-PaCa2; format: cell-based; settings: CCK-8, 72 hours
Description: (§5) In this experiment, CCK-8 was used to study the proliferation activity of pancreatic cancer cells SU86.86, MIA-PaCa2, SW1990, CFPAC-1 and BxPC-3. All cell lines were cultured in an incubator with 5% CO2 and saturated humidity at 37° C. The experimental steps were as follows:
(§6) The cells in logarithmic growth phase were collected, counted, adjusted to a cell concentration of 3×10^4 cells/mL, and then seeded into a 96-well plate at 100 μL/well. The blank group (Blank, medium group without cells) and the control group (Control, medium group with cells) were set up. After the cells in the culture plate were cultured overnight in the incubator with saturated humidity at 37° C. and adhered, the compounds were diluted with culture medium and added to the first column of administration wells at a desired concentration for these wells, followed by the 2-fold serial dilution and administration at 18 concentrations in total, and pipetted gently to mix well. After incubation for 72 hours, 10 μL of CCK8 solution (5 mg/mL) was added to each well. After cultivation in the incubator for another 4 hours, the OD value was measured using a microplate-reader at λ=450 nm.

[11] = tested on: pancreatic cancer cells SW1990; assay: CCK-8 inhibition of pancreatic cancer cells, SW1990; format: cell-based; settings: CCK-8, 72 hours
Description: as §5, §6

[12] = tested on: pancreatic cancer cells SU86.86; assay: CCK-8 inhibition of pancreatic cancer cells, SU86.86; format: cell-based; settings: CCK-8, 72 hours
Description: as §5, §6

[13] = tested on: pancreatic cancer cells CFPAC-1; assay: CCK-8 inhibition of pancreatic cancer cells, CFPAC-1; format: cell-based; settings: CCK-8, 72 hours
Description: as §5, §6

[14] = tested on: pancreatic cancer cells BxPC-3; assay: CCK-8 inhibition of pancreatic cancer cells, BxPC-3; format: cell-based; settings: CCK-8, 72 hours
Description: as §5, §6

[15] = tested on: FaDu (human pharyngeal squamous carcinoma cells); assay: In vitro anti-tumor activity assay (MTT), FaDu; format: cell-based; settings: 72 hours, average of multiple measurements
Excerpt: as §1
(§7) The cells in logarithmic growth phase were collected, counted, adjusted to a cell concentration of 3× 10^4 cells/mL, and then seeded into a 96-well plate at 100 μL/well. The blank group (Blank, pure medium group) and the control group (Control, no drug group) were set up. The plate was cultured overnight in a cell culture incubator. […] After shaking thoroughly, the OD value was measured using a microplate-reader at 2=570 nm. […]

[16] = tested on: HCCC9810 (human liver cancer cells); assay: In vitro anti-tumor activity assay (MTT), HCCC9810; format: cell-based; settings: 72 hours, average of multiple measurements, read-out: IC50 HCCC 9810
Excerpt: as §1, §7

[17] = tested on: breast cancer organoids from patients; assay: In vitro organoid activity assay, breast cancer; format: cell-based, human; settings: 96 hours, CellTiter-Glo 3D, one value per case; read-out: IC50 in organoid models of 2 cases of breast cancer
Description: as §3, §4

[18] = tested on: 5637 (human bladder cancer cells); assay: In vitro anti-tumor activity assay (MTT), 5637; format: cell-based; settings: 72 hours, average of multiple measurements
Excerpt: as §1, §7

[19] = tested on: OVCAR3 (human ovarian cancer cells); assay: In vitro anti-tumor activity assay (MTT), OVCAR3; format: cell-based; settings: 72 hours, average of multiple measurements, read-out: IC50 OVCRA3
Excerpt: as §1, §7

[20] = 4T1-Luc, Pt 2.0 mg/kg once every 3 days, six times
[21] = pancreatic cancer KPC, Pt 3.0 mg/kg
[22] = pancreatic cancer PDX, Pt 3.0 mg/kg

Row | Molecule | H&E staining: damage to tumor tissues ([1]; 4T1-Luc, Pt 2.0 mg/kg) | final survival rate ([1]; 4T1-Luc, Pt 2.0 mg/kg) [%] | final survival rate [2, 21] | final survival rate [3, 22] [%] | IC50 [8] [µM] | IC50 ([4]; 72 hours) [µM] | tumor inhibition rate at the treatment endpoint ([2]; pancreatic cancer KPC) [%] | PD-1 level in tumors (flow cytometry) [2, 21] [%] | IC50 [10] [µM] | IC50 [11] [µM] | body weight change of mice [3, 22] | tumor inhibition rate at the treatment endpoint ([3]; pancreatic cancer PDX) [%] | IC50 ([5]; 72 hours) [µM] | IC50 [6] [µM] | IC50 [7] [µM] | IC50 [12] [µM] | IC50 [13] [µM] | IC50 [14] [µM] | also measured
1 | CCCCCCCCCCCCNC(=O)[O][Pt]([NH2])([NH2])([Cl])([Cl])[O]C(=O)CCC(=O)n1cc(CN(C)C)c2ccccc21 [Compound c] | severe damage to tumor tissues | 100 | 100% | 100 |  |  |  |  |  |  |  |  |  |  |  |  |  |  | immunohistochemical staining of mouse spleens (CD4+, CD8+, Foxp3 Treg cells) ([1]; 4T1-Luc, Pt 2.0 mg/kg): increasing the number of CD4+ and CD8+ cells, while decreasing the number of Treg cells; tumor growth (tumor volume, tumor weight) [1, 20]: significantly inhibited tumor growth; platinum accumulation in tissues (ICP-MS) ([1]; mouse, in vivo): significantly decreased the accumulation in the kidney and spleen; body weight change of mice ([2]; mouse, in vivo): substantially stable body weight; body weight change of mice ([3]; mouse, in vivo): weight recovery and stability from Day 9 post-treatment; platinum accumulation in tissues (ICP-MS) ([3]; mouse, in vivo): significantly decreased the accumulation in the kidney and spleen
2 | CN(C)Cc1c[nH]c2ccccc12 [GM, gramine] |  |  |  |  | > 100 |  |  |  |  |  |  |  |  |  |  |  |  |  | IC50 ([4]; Homo sapiens, MCF7, 72 hours): > 100 µM; IC50 ([5]; Homo sapiens, HCT-116, 72 hours): > 100 µM; IC50 ([6]; Homo sapiens, HeLa): > 100 µM; IC50 ([7]; Homo sapiens, MDA-MB-231): > 100 µM
3 | O=C1[O][Pt]2([NH][C@@H]3CCCC[C@H]3[NH]2)[O]C1=O [OXP, oxaliplatin] |  |  |  | 60 | 27.2 | 17.5 | 64.76 | 21.0 | 2 | 2.8 | significant decline all the time | 68.82 | 9.98 | 14.6 | 28.2 | 8.02 | 200 | 1.37 | IC50 [9]: 12.7 µM and > 20 µM
4 | cisplatin [CDDP] | severe damage to tumor tissues | 16.67 | all died finally | 40 | 3.99 | 5.9 | 55.67 | 24.3 | 500 | 500 | significant decline all the time | 32.68 | 8.79 | 4.94 | 15.8 | 127 | 603 | 420 | H&E staining: damage to mouse organs ([1]; 4T1-Luc, Pt 2.0 mg/kg): severe damage to the spleen, kidney, and liver; body weight change of mice [1, 20]: significant decline; IC50 [15]: 1.57 µM; IC50 [16]: 5.55 µM; body weight change of mice [2, 21]: more significant decline; IC50 [17]: > 20 µM; selectivity index IC50 (LO2)/IC50 (MDA-MB-231) ([7]; tumor cell line MDA-MB-231 versus normal cell line LO2): 0.25; IC50 [18]: 1.35 µM; IC50 [19]: 1.93 µM

— US20260193285A1, “GRAMINE-PLATINUM (IV) COMPLEX AS WELL AS PREPARATION METHOD THEREFOR AND ANTI-TUMOR USE THEREOF” (TIANJIN MEDICAL UNIVERSITY CANCER INSTITUTE & HOSPITAL, priority 2022, published 2026)
